Results on twelve compounds are retold here after ChEMBL document CHEMBL1201862, “PubChem BioAssay data set” (2004).

Among the test systems are PC-3; SF-295; COLO 205; SNB-75; HT-29; SK-MEL-2; SNB-19; MDA-MB-435; HCT-15; HOP-92; M14; RXF 393; A498; NCI-H23; TK-10; MDA-MB-231; KM12; K562; HOP-62.
What all share (test): NCI anticancer screen, dose series, 48 h

Structures are written as SMILES.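 Method: 48-hour compound exposure of cells in 96-well plates, five concentrations, linear interpolation of endpoints. GI50: concentration for 50% inhibition of growth.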 Active and inactive are the calls of the source. Cut-off read from the data, not from the text of the source: active = GI50 up to about 1.1 µM and inactive = higher.

In the case of `Cc1ccc(S(=O)(=O)NC(=O)NCCc2ccc(O)c(O)c2)cc1`, the GI50 in the assay on PC-3, in the assay with SF-295, in the assay with COLO 205, with SNB-75, with HT-29 and in the assay on SK-MEL-2 was > 100 µM (inactive) each time. The GI50 is > 100 µM (inactive) in the assay on SNB-19; 51.3 µM (inactive) in the assay with MDA-MB-435; greater than 100 µM with HCT-15; > 100 µM (inactive) in the assay on HOP-92; > 100 µM (inactive) in the assay with M14; > 100 µM (inactive) in the assay with RXF 393. For the same compound, the GI50 in the assay on A498, in the assay on NCI-H23, with TK-10, with MDA-MB-231, in the assay with KM12 and in the assay on K562 was > 100 µM (inactive) each time. Also, in the assay with HOP-62, the GI50 was > 100 µM (inactive).

`Cn1ccnc1CCc1ccc(Cl)cc1Cl`: the GI50 in the assay with SF-295 was 79.1 µM (inactive); in the assay with COLO 205, > 100 µM (inactive); in the assay on SNB-75 it was > 100 µM (inactive); in the assay on HT-29 it was 79.4 µM (inactive); with SK-MEL-2 it was > 100 µM (inactive); with SNB-19, > 100 µM (inactive). For the same compound, the GI50 is greater than 100 µM in the assay with HCT-15; 49.9 µM (inactive) in the assay with HOP-92; > 100 µM (inactive) in the assay with M14; 35.4 µM (inactive) in the assay with RXF 393; > 100 µM (inactive) with A498; > 100 µM (inactive) in the assay on NCI-H23. Also, the GI50 in the assay with TK-10, with KM12, in the assay on K562 and in the assay on HOP-62 was > 100 µM (inactive) in each case.

As to `CC(=O)O[C@H]1[C@@H]2[C@@H]3[C@@H](C[C@H]1C)[C@@H](C)CO[C@@]1(C)CC/C=C(/C)C[C@@H]2O[C@@H]31`, the GI50 with SF-295, in the assay with COLO 205, in the assay with SNB-75, in the assay with HT-29, in the assay with SK-MEL-2 and with SNB-19 was > 100 µM (inactive) each time. Besides, the GI50 in the assay with HCT-15 was greater than 100 µM; with HOP-92, > 100 µM (inactive); with M14 it was > 100 µM (inactive); in the assay on RXF 393, > 100 µM (inactive); in the assay on A498 it was > 100 µM (inactive); in the assay with NCI-H23, > 100 µM (inactive). In addition, the GI50 with TK-10, in the assay on KM12, in the assay on K562 and in the assay on HOP-62 was > 100 µM (inactive) throughout.

Consider `O=CC12c3ccccc3C(c3ccccc31)C1C(=O)NC(=O)C12` (centres undefined), for which the GI50 was > 100 µM (inactive) with PC-3; > 100 µM (inactive) in the assay with SF-295; > 100 µM (inactive) in the assay on COLO 205; 39 µM (inactive) in the assay on SNB-75; > 100 µM (inactive) in the assay on HT-29; > 100 µM (inactive) in the assay on SK-MEL-2. For the same compound, the GI50 in the assay with SNB-19 is > 100 µM (inactive); with MDA-MB-435 it was > 100 µM (inactive); with HCT-15, greater than 100 µM; with HOP-92, > 100 µM (inactive); in the assay on M14, > 100 µM (inactive); in the assay with RXF 393 it was 76.2 µM (inactive). The GI50 is 10.8 µM (inactive) in the assay with A498; > 100 µM (inactive) in the assay on NCI-H23; > 100 µM (inactive) with TK-10; > 100 µM (inactive) in the assay with MDA-MB-231; > 100 µM (inactive) in the assay with KM12; 66.8 µM (inactive) in the assay on K562. The GI50 in the assay on HOP-62 was 56 µM (inactive).

As for `COc1ccc2nc3ccccc3c(NCCCCCCN(C)CCCl)c2c1`, the GI50 in the assay on SF-295 is 1 µM (active); in the assay with COLO 205, 0.265 µM (active); in the assay with SNB-75, 0.703 µM (active); in the assay with HT-29, 0.122 µM (active); in the assay with SK-MEL-2 it was 0.293 µM (active); in the assay on SNB-19, 1.17 µM (inactive). The GI50 in the assay on HCT-15 is 0.221 µM; in the assay on HOP-92 it was 0.158 µM (active); in the assay with M14 it was 0.834 µM (active); in the assay with RXF 393 it was 0.367 µM (active); with A498, 1.16 µM (inactive); in the assay with NCI-H23 it was 0.175 µM (active). Besides, the GI50 in the assay on TK-10 was 1.32 µM (inactive); with KM12, 0.27 µM (active); in the assay on K562, 0.0582 µM (active); in the assay on HOP-62, 1.05 µM (active).

As to `CC1(C)OCC([C@H]2CC23SCCCS3)O1` (some centres undefined), the GI50 in the assay with SF-295, with COLO 205, in the assay on SNB-75, with HT-29, in the assay on SK-MEL-2 and in the assay on SNB-19 was > 100 µM (inactive) throughout. The GI50 in the assay with HCT-15 was greater than 100 µM; in the assay on HOP-92, 51.8 µM (inactive); with M14, > 100 µM (inactive); with RXF 393 it was > 100 µM (inactive); with A498 it was > 100 µM (inactive); in the assay on NCI-H23, > 100 µM (inactive). The GI50 with TK-10, in the assay with KM12, in the assay on K562 and with HOP-62 was > 100 µM (inactive) throughout.

Turning to `N#Cc1nc(CCC(c2nc(C#N)c(N)o2)N2C(=O)c3ccccc3C2=O)oc1N` (centres undefined), the GI50 in the assay on PC-3, in the assay on SF-295, in the assay with COLO 205, in the assay on SNB-75, with HT-29 and with SK-MEL-2 was > 100 µM (inactive) throughout. Moreover, the GI50 in the assay with SNB-19 is > 100 µM (inactive); with MDA-MB-435, > 100 µM (inactive); with HCT-15, greater than 100 µM; with HOP-92, > 100 µM (inactive); with M14 it was > 100 µM (inactive); with RXF 393, > 100 µM (inactive). The GI50 with A498 is > 100 µM (inactive); in the assay on NCI-H23, > 100 µM (inactive); in the assay with TK-10, > 100 µM (inactive); with MDA-MB-231, > 100 µM (inactive); with KM12, > 100 µM (inactive); in the assay on K562 it was 32.8 µM (inactive). Moreover, the GI50 with HOP-62 was > 100 µM (inactive).

Regarding `Cc1cc2c(=O)c3ccccc3oc2c(C#N)c1C`, the GI50 was 40.3 µM (inactive) with PC-3; > 100 µM (inactive) in the assay with SF-295; > 100 µM (inactive) in the assay on COLO 205; > 100 µM (inactive) in the assay with SNB-75; 43.6 µM (inactive) in the assay with HT-29; > 100 µM (inactive) with SNB-19. Besides, the GI50 with HOP-92, with M14, in the assay with RXF 393, in the assay with A498, in the assay on NCI-H23 and in the assay on TK-10 was > 100 µM (inactive) throughout. The GI50 in the assay on KM12, in the assay on K562 and with HOP-62 was > 100 µM (inactive) each time.

Take `O=C(OC[C@H]1C[C@H]2C(=O)CCC[C@H]2O1)c1ccccc1`: the GI50 in the assay with PC-3, in the assay with SF-295, in the assay with COLO 205, with SNB-75, in the assay on HT-29 and in the assay with SK-MEL-2 was > 100 µM (inactive) throughout. Also, the GI50 with SNB-19 is > 100 µM (inactive); in the assay with MDA-MB-435, > 100 µM (inactive); with HCT-15 it was greater than 100 µM; in the assay on HOP-92, > 100 µM (inactive); in the assay on M14 it was > 100 µM (inactive); in the assay on A498, > 100 µM (inactive). For the same compound, the GI50 with NCI-H23, in the assay with TK-10, in the assay with MDA-MB-231, in the assay with KM12, in the assay on K562 and with HOP-62 was > 100 µM (inactive) throughout.

As to `CC(=O)CC(=O)OC1CC(C)CCC1C(C)C` (centres undefined), the GI50 in the assay on SF-295 is 80.7 µM (inactive); with COLO 205, 96.2 µM (inactive); in the assay with SNB-75 it was 73.3 µM (inactive); with HT-29, 30 µM (inactive); in the assay with SK-MEL-2 it was 28.4 µM (inactive); in the assay with SNB-19, 78.5 µM (inactive). For the same compound, the GI50 was 38.7 µM with HCT-15; 35 µM (inactive) in the assay on HOP-92; > 100 µM (inactive) in the assay with M14; 72.4 µM (inactive) with RXF 393; > 100 µM (inactive) in the assay on A498; 96.8 µM (inactive) in the assay with NCI-H23. For the same compound, the GI50 in the assay with TK-10 was > 100 µM (inactive); in the assay on KM12, 37.8 µM (inactive); with K562, 16 µM (inactive); with HOP-62 it was 33.9 µM (inactive).

Consider `CCCCCCCCC[C@@H]1CC(=O)OCC2OC(O[C@H](CCCCCCCCC)CC(=O)OCC3OC(O[C@H](CCCCCCCCC)CC(=O)OCC4OC(O1)C(O)C(O)C4O)C(O)C(O)C3O)C(O)C(O)C2O` (some centres undefined), for which the GI50 in the assay with SF-295 is 14.1 µM (inactive); in the assay on COLO 205, 2.52 µM (inactive); with SNB-75 it was 9.27 µM (inactive); in the assay on HT-29, 11.9 µM (inactive); in the assay with SK-MEL-2 it was 8.67 µM (inactive); in the assay with SNB-19, 8.89 µM (inactive). Also, the GI50 in the assay with HCT-15 was 5.43 µM; in the assay on HOP-92 it was 7.05 µM (inactive); in the assay on M14, 4.97 µM (inactive); in the assay on RXF 393, 17 µM (inactive); in the assay on A498, 14.5 µM (inactive); in the assay with NCI-H23, 16 µM (inactive). Further, the GI50 in the assay with TK-10 is 8.15 µM (inactive); in the assay with KM12 it was 6.5 µM (inactive); in the assay on K562, 3.47 µM (inactive); in the assay with HOP-62, 12.3 µM (inactive).

For the compound `CO[C@@H](C(=O)OC1C=CC2(CC1)C(=O)N(C)c1ccccc12)c1ccccc1` (some centres undefined), the GI50 with PC-3 was > 100 µM (inactive); in the assay on SF-295, > 100 µM (inactive); with COLO 205, 60 µM (inactive); with SNB-75 it was > 100 µM (inactive); in the assay with HT-29, 65.8 µM (inactive); in the assay on SK-MEL-2 it was > 100 µM (inactive). In addition, the GI50 is > 100 µM (inactive) with SNB-19; 94.8 µM (inactive) in the assay on MDA-MB-435; greater than 100 µM in the assay with HCT-15; > 100 µM (inactive) in the assay with HOP-92; 72.6 µM (inactive) in the assay with M14; > 100 µM (inactive) with A498. Further, the GI50 with NCI-H23 is 76.6 µM (inactive); in the assay with TK-10, > 100 µM (inactive); with MDA-MB-231, > 100 µM (inactive); in the assay with KM12, > 100 µM (inactive); in the assay on K562, 20 µM (inactive); in the assay with HOP-62, > 100 µM (inactive).
